Measured values from PubChem BioAssay AID1963445 (Molecular Pharmacology Branch, DTP, NCI, 2024).

Tested on: MCF7 complex spheroid growth, % test/control
Test: Anticancer human tumor MCF7 cell line growth inhibition [Asc];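 further: spheroids exposed to compounds for 7 days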;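 on viability, T/C: 100% = DMSO vehicle control wells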
Details: for IC50: curve of first compound; for viability, T/C: stronger effect = lower value
In short: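 Complex spheroids combining tumor cells with HUVEC endothelial cells and human MSCs, at 37 degrees C, 5% CO2; agents tested alone or combined, half-log dilutions from at or near clinical Cmax, or 10 microM if Cmax unknown.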

O=C(c1cc(Cc2n[nH]c(=O)c3ccccc23)ccc1F)N1CCN(C(=O)C2CC2)CC1 + CCN1C(C(=O)NC23CCC(C(=O)O)(CC2)CC3)C(c2cccc(Cl)c2F)C2(C(=O)Nc3cc(Cl)ccc32)C12CCCCC2
IC50 (second compound 0.00949 µM): > 10000 nM
IC50 (second compound 0.03 µM): > 10000 nM
IC50 (second compound 0.0949 µM): < 31.6 nM
IC50 (second compound 0.3 µM): < 31.6 nM
IC50 (second compound 0.949 µM): < 31.6 nM
IC50 (second compound 3 µM): < 31.6 nM
viability, T/C (second compound 0.00949 µM, first compound 0.0316 µM): 133%
viability, T/C (second compound 0.00949 µM, first compound 0.1 µM): 96.8%
viability, T/C (second compound 0.00949 µM, first compound 0.316 µM): 107%
viability, T/C (second compound 0.00949 µM, first compound 1 µM): 106%
viability, T/C (second compound 0.00949 µM, first compound 3.16 µM): 92.3%
viability, T/C (second compound 0.00949 µM, first compound 10 µM): 73%
viability, T/C (second compound 0.03 µM, first compound 0.0316 µM): 85.6%
viability, T/C (second compound 0.03 µM, first compound 0.1 µM): 81.5%
viability, T/C (second compound 0.03 µM, first compound 0.316 µM): 87%
viability, T/C (second compound 0.03 µM, first compound 1 µM): 86%
viability, T/C (second compound 0.03 µM, first compound 3.16 µM): 74.2%
viability, T/C (second compound 0.03 µM, first compound 10 µM): 62.2%
viability, T/C (second compound 0.0949 µM, first compound 0.0316 µM): 46.7%
viability, T/C (second compound 0.0949 µM, first compound 0.1 µM): 47.4%
viability, T/C (second compound 0.0949 µM, first compound 0.316 µM): 51.4%
viability, T/C (second compound 0.0949 µM, first compound 1 µM): 45.5%
viability, T/C (second compound 0.0949 µM, first compound 3.16 µM): 38.9%
viability, T/C (second compound 0.0949 µM, first compound 10 µM): 44.5%
viability, T/C (second compound 0.3 µM, first compound 0.0316 µM): 34.3%
viability, T/C (second compound 0.3 µM, first compound 0.1 µM): 30.3%
viability, T/C (second compound 0.3 µM, first compound 0.316 µM): 32.8%
viability, T/C (second compound 0.3 µM, first compound 1 µM): 30.6%
viability, T/C (second compound 0.3 µM, first compound 3.16 µM): 29.4%
viability, T/C (second compound 0.3 µM, first compound 10 µM): 29%
viability, T/C (second compound 0.949 µM, first compound 0.0316 µM): 21%
viability, T/C (second compound 0.949 µM, first compound 0.1 µM): 22.7%
viability, T/C (second compound 0.949 µM, first compound 0.316 µM): 21.5%
viability, T/C (second compound 0.949 µM, first compound 1 µM): 21.6%
viability, T/C (second compound 0.949 µM, first compound 3.16 µM): 25.7%
viability, T/C (second compound 0.949 µM, first compound 10 µM): 19.6%
viability, T/C (second compound 3 µM, first compound 0.0316 µM): 13.7%
viability, T/C (second compound 3 µM, first compound 0.1 µM): 16.2%
viability, T/C (second compound 3 µM, first compound 0.316 µM): 14.4%
viability, T/C (second compound 3 µM, first compound 1 µM): 14.9%
viability, T/C (second compound 3 µM, first compound 3.16 µM): 18.9%
viability, T/C (second compound 3 µM, first compound 10 µM): 15.9%

NC(=O)C(=Cn1cnc(-c2cc(C(F)(F)F)cc(C(F)(F)F)c2)n1)c1cncnc1 + Cc1c(S(C)(=O)=O)c(-c2cc(F)cc(N3CCN(c4ccc(NS(=O)(=O)c5ccc(NC(CCN6CCC(C(=O)OCCCP(=O)(O)O)CC6)CSc6ccccc6)c(S(=O)(=O)C(F)(F)F)c5)cc4)CC3)c2)c(-c2ccc(Cl)cc2)n1C(C)C
IC50 (second compound 0.0316 µM): 76.6 nM
IC50 (second compound 0.1 µM): 51.6 nM
IC50 (second compound 0.316 µM): 35.1 nM
IC50 (second compound 1 µM): 39.8 nM
IC50 (second compound 3.16 µM): 27.3 nM
IC50 (second compound 10 µM): 62.6 nM
viability, T/C (second compound 0.0316 µM, first compound 0.000949 µM): 94.4%
viability, T/C (second compound 0.0316 µM, first compound 0.003 µM): 88%
viability, T/C (second compound 0.0316 µM, first compound 0.00949 µM): 89.3%
viability, T/C (second compound 0.0316 µM, first compound 0.03 µM): 89.7%
viability, T/C (second compound 0.0316 µM, first compound 0.0949 µM): 40.9%
viability, T/C (second compound 0.0316 µM, first compound 0.3 µM): 16.8%
viability, T/C (second compound 0.1 µM, first compound 0.000949 µM): 87.6%
viability, T/C (second compound 0.1 µM, first compound 0.003 µM): 82.8%
viability, T/C (second compound 0.1 µM, first compound 0.00949 µM): 81.8%
viability, T/C (second compound 0.1 µM, first compound 0.03 µM): 76.4%
viability, T/C (second compound 0.1 µM, first compound 0.0949 µM): 20.3%
viability, T/C (second compound 0.1 µM, first compound 0.3 µM): 15.7%
viability, T/C (second compound 0.316 µM, first compound 0.000949 µM): 90.5%
viability, T/C (second compound 0.316 µM, first compound 0.003 µM): 87.4%
viability, T/C (second compound 0.316 µM, first compound 0.00949 µM): 70.1%
viability, T/C (second compound 0.316 µM, first compound 0.03 µM): 60.9%
viability, T/C (second compound 0.316 µM, first compound 0.0949 µM): 19.7%
viability, T/C (second compound 0.316 µM, first compound 0.3 µM): 16.4%
viability, T/C (second compound 1 µM, first compound 0.000949 µM): 89%
viability, T/C (second compound 1 µM, first compound 0.003 µM): 75.8%
viability, T/C (second compound 1 µM, first compound 0.00949 µM): 73.8%
viability, T/C (second compound 1 µM, first compound 0.03 µM): 61%
viability, T/C (second compound 1 µM, first compound 0.0949 µM): 13.9%
viability, T/C (second compound 1 µM, first compound 0.3 µM): 18.8%
viability, T/C (second compound 3.16 µM, first compound 0.000949 µM): 70.4%
viability, T/C (second compound 3.16 µM, first compound 0.003 µM): 73.4%
viability, T/C (second compound 3.16 µM, first compound 0.00949 µM): 77%
viability, T/C (second compound 3.16 µM, first compound 0.03 µM): 47.9%
viability, T/C (second compound 3.16 µM, first compound 0.0949 µM): 22.5%
viability, T/C (second compound 3.16 µM, first compound 0.3 µM): 18.4%
viability, T/C (second compound 10 µM, first compound 0.000949 µM): 121%
viability, T/C (second compound 10 µM, first compound 0.003 µM): 131%
viability, T/C (second compound 10 µM, first compound 0.00949 µM): 102%
viability, T/C (second compound 10 µM, first compound 0.03 µM): 90.6%
viability, T/C (second compound 10 µM, first compound 0.0949 µM): 25.5%
viability, T/C (second compound 10 µM, first compound 0.3 µM): 16.8%

CNC(C)C(=O)NC1CN(S(=O)(=O)c2cccc(S(=O)(=O)N3CCC4CCC(C(=O)NC(c5ccccc5)c5ccccc5)N4C(=O)C(NC(=O)C(C)NC)C3)c2)CCC2CCC(C(=O)NC(c3ccccc3)c3ccccc3)N2C1=O (stereo unspecified) + Cc1c(S(C)(=O)=O)c(-c2cc(F)cc(N3CCN(c4ccc(NS(=O)(=O)c5ccc(NC(CCN6CCC(C(=O)OCCCP(=O)(O)O)CC6)CSc6ccccc6)c(S(=O)(=O)C(F)(F)F)c5)cc4)CC3)c2)c(-c2ccc(Cl)cc2)n1C(C)C
IC50 (second compound 0.0316 µM): 5.15 nM
IC50 (second compound 0.1 µM): 6.44 nM
IC50 (second compound 0.316 µM): 4.92 nM
IC50 (second compound 1 µM): 5.56 nM
IC50 (second compound 3.16 µM): < 3.16 nM
IC50 (second compound 10 µM): 4.17 nM
viability, T/C (second compound 0.0316 µM, first compound 0.00316 µM): 73.3%
viability, T/C (second compound 0.0316 µM, first compound 0.01 µM): 17.6%
viability, T/C (second compound 0.0316 µM, first compound 0.0316 µM): 15.6%
viability, T/C (second compound 0.0316 µM, first compound 0.1 µM): 18.6%
viability, T/C (second compound 0.0316 µM, first compound 0.316 µM): 16.3%
viability, T/C (second compound 0.0316 µM, first compound 1 µM): 20.2%
viability, T/C (second compound 0.1 µM, first compound 0.00316 µM): 96.3%
viability, T/C (second compound 0.1 µM, first compound 0.01 µM): 21.4%
viability, T/C (second compound 0.1 µM, first compound 0.0316 µM): 17.3%
viability, T/C (second compound 0.1 µM, first compound 0.1 µM): 17%
viability, T/C (second compound 0.1 µM, first compound 0.316 µM): 17.7%
viability, T/C (second compound 0.1 µM, first compound 1 µM): 16.9%
viability, T/C (second compound 0.316 µM, first compound 0.00316 µM): 65.9%
viability, T/C (second compound 0.316 µM, first compound 0.01 µM): 25.1%
viability, T/C (second compound 0.316 µM, first compound 0.0316 µM): 16.4%
viability, T/C (second compound 0.316 µM, first compound 0.1 µM): 19%
viability, T/C (second compound 0.316 µM, first compound 0.316 µM): 19.2%
viability, T/C (second compound 0.316 µM, first compound 1 µM): 18.8%
viability, T/C (second compound 1 µM, first compound 0.00316 µM): 78.9%
viability, T/C (second compound 1 µM, first compound 0.01 µM): 20%
viability, T/C (second compound 1 µM, first compound 0.0316 µM): 18.6%
viability, T/C (second compound 1 µM, first compound 0.1 µM): 19.8%
viability, T/C (second compound 1 µM, first compound 0.316 µM): 17.4%
viability, T/C (second compound 1 µM, first compound 1 µM): 15.9%
viability, T/C (second compound 3.16 µM, first compound 0.00316 µM): 37%
viability, T/C (second compound 3.16 µM, first compound 0.01 µM): 19.1%
viability, T/C (second compound 3.16 µM, first compound 0.0316 µM): 18.3%
viability, T/C (second compound 3.16 µM, first compound 0.1 µM): 22.8%
viability, T/C (second compound 3.16 µM, first compound 0.316 µM): 20.4%
viability, T/C (second compound 3.16 µM, first compound 1 µM): 20.1%
viability, T/C (second compound 10 µM, first compound 0.00316 µM): 56%
viability, T/C (second compound 10 µM, first compound 0.01 µM): 31.6%
viability, T/C (second compound 10 µM, first compound 0.0316 µM): 23.8%
viability, T/C (second compound 10 µM, first compound 0.1 µM): 21.7%
viability, T/C (second compound 10 µM, first compound 0.316 µM): 21.5%
viability, T/C (second compound 10 µM, first compound 1 µM): 24%
